Assays:
Format in all cases: biochemical
AAK1 = AAK1 (Homo sapiens (Human), UniProt Q2M2I8); test: KinaseProfiler radiometric assay (16-043KP); details: mean of at least two independent experiments
Excerpt: In another aspect, disclosed is a method of inhibiting citron kinase in a sample, comprising contacting the sample with a compound described herein (e.g., a compound of formula (I) or a pharmaceutically acceptable salt thereof), or a pharmaceutical composition described herein (e.g., a pharmaceutical composition comprising a compound of formula (I) or a pharmaceutically acceptable salt thereof), in an amount effective to inhibit citron kinase. In some embodiments, the step of contacting the sample with the compound comprises administering the compound to a subject (e.g., a subject) suffering from cancer. Methods of determining kinase inhibition are well known in the art. For example, kinase activity of an enzyme and the inhibitory capacity of a test compound can be determined by measuring enzyme specific phosphorylation of a substrate. Commercial assays and kits can be employed. For example, kinase inhibition can be determined using a radiometric binding assay, such as using KinaseProfiler™ technology (Eurofins Discovery). This assay method directly detects product formation without the use of modified substrates or coupling enzymes. […]
The effect of various compounds on the inhibition of other kinases has also been determined. Table 2 reports measured IC50 values; value units are nanomolar inhibition.

ACTR2(h) = ACTR2(h) (Homo sapiens (Human), UniProt P27037); test: KinaseProfiler panel; design: dose or concentration left out as unconfirmed; details: activity remaining
ALK(h) = ALK(h) (Homo sapiens (Human), UniProt Q9UM73); test: KinaseProfiler panel; details: activity remaining
CDK13/cyclinK(h) = CDK13/cyclinK(h) (Homo sapiens (Human), UniProt Q14004); test: KinaseProfiler panel; design: dose or concentration left out as unconfirmed; details: activity remaining
CDK16/cyclinY(h) = CDK16/cyclinY(h) (Homo sapiens (Human), UniProt Q00536); test: KinaseProfiler panel; design: dose or concentration left out as unconfirmed; details: activity remaining
CDK16/cyclinY(h), sequence (Q00536 whole entry): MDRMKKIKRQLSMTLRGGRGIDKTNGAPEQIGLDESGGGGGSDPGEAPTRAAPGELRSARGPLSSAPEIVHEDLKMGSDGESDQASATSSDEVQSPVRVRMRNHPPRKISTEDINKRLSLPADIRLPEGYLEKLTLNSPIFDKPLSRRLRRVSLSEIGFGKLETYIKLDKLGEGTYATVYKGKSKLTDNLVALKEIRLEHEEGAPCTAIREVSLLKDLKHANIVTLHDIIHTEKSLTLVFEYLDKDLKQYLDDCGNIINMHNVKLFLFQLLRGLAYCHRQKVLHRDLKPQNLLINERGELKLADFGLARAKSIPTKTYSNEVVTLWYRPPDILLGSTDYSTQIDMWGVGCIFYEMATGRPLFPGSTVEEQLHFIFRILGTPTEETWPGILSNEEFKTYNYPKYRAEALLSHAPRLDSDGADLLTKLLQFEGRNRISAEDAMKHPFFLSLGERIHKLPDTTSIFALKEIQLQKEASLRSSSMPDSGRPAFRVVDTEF
CDK16/cyclinY(h), sequence (Q8ND76 whole entry partner): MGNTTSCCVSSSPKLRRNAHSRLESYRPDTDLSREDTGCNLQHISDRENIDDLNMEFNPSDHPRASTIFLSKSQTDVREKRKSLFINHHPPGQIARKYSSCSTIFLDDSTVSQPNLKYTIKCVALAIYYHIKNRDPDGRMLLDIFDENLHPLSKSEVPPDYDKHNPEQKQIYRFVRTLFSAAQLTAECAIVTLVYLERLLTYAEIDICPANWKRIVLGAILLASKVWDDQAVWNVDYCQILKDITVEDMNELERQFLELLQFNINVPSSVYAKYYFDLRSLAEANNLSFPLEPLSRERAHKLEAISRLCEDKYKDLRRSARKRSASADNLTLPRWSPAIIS

CDK17/cyclinY(h) = CDK17/cyclinY(h) (Homo sapiens (Human), UniProt Q00537); test: KinaseProfiler panel; design: dose or concentration left out as unconfirmed; details: activity remaining
CDKL2(h) = CDKL2(h) (Homo sapiens (Human), UniProt Q92772); test: KinaseProfiler panel; design: dose or concentration left out as unconfirmed; details: activity remaining
CK1γ2(h) = CK1γ2(h) (Homo sapiens (Human), UniProt P78368); test: KinaseProfiler panel; design: dose or concentration left out as unconfirmed; details: activity remaining
CK1γ2(h), sequence (P78368 whole entry): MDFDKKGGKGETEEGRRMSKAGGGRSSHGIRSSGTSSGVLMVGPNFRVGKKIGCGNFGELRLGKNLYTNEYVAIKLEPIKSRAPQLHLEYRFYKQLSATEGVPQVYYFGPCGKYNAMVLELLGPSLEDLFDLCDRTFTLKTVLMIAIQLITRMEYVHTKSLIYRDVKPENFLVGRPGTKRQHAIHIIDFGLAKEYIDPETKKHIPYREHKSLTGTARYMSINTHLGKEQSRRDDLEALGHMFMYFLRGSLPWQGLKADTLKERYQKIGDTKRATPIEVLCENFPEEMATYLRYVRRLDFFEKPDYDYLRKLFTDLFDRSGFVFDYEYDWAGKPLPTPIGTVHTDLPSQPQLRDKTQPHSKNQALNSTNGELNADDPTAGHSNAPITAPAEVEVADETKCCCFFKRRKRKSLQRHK

CK1γ3(h) = CK1γ3(h) (Homo sapiens (Human), UniProt Q9Y6M4); test: KinaseProfiler panel; design: dose or concentration left out as unconfirmed; details: activity remaining
CK1ε(h) = CK1ε(h) (Homo sapiens (Human), UniProt P49674); test: KinaseProfiler panel; design: dose or concentration left out as unconfirmed; details: activity remaining
ErbB2(h) = ErbB2(h) (Homo sapiens (Human), UniProt P04626); test: KinaseProfiler panel; design: dose or concentration left out as unconfirmed; details: activity remaining
ErbB2(h), sequence (P04626 23-1255): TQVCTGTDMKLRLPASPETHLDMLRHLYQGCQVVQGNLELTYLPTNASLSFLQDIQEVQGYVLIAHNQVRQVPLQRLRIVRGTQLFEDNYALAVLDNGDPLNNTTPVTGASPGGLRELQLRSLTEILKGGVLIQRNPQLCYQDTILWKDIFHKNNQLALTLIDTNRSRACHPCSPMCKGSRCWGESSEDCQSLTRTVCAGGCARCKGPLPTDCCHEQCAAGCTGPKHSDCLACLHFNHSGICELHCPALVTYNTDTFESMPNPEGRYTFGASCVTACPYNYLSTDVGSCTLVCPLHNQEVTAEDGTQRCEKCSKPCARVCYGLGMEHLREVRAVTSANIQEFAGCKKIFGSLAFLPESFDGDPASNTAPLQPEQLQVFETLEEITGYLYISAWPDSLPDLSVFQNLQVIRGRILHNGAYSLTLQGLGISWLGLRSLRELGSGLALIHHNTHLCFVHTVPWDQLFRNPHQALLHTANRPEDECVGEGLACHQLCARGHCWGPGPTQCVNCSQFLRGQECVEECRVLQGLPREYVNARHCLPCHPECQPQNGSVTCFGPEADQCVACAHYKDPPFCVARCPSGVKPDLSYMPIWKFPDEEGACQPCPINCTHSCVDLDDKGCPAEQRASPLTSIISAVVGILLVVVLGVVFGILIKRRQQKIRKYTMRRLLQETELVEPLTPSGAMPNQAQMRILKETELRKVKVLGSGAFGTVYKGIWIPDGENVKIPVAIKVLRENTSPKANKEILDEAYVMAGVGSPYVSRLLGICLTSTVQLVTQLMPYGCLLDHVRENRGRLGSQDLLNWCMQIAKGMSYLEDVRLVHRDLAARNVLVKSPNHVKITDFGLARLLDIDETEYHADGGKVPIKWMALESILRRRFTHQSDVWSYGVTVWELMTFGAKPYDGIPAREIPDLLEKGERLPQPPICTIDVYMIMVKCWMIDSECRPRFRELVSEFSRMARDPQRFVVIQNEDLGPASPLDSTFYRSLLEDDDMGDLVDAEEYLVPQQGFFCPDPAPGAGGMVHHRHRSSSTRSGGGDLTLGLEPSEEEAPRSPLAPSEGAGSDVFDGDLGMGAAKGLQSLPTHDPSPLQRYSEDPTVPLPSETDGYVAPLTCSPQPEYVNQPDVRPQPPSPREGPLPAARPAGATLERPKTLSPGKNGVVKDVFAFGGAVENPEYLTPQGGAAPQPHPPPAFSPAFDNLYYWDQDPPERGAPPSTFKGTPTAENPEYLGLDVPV

FGFR4(h) = FGFR4(h) (Homo sapiens (Human), UniProt P22455); test: KinaseProfiler panel; design: dose or concentration left out as unconfirmed; details: activity remaining
Fms(h) = Fms(h) (Homo sapiens (Human), UniProt P07333); test: KinaseProfiler panel; design: dose or concentration left out as unconfirmed; details: activity remaining
IKKε(h) = IKKε(h) (Homo sapiens (Human), UniProt Q14164); test: KinaseProfiler panel; design: dose or concentration left out as unconfirmed; details: activity remaining
Itk(h) = Itk(h) (Homo sapiens (Human), UniProt Q08881); test: KinaseProfiler panel; design: dose or concentration left out as unconfirmed; details: activity remaining
MKK6(h) = MKK6(h) (Homo sapiens (Human), UniProt P52564); test: KinaseProfiler panel; design: dose or concentration left out as unconfirmed; details: activity remaining
MST2(h) = MST2(h) (Homo sapiens (Human), UniProt Q13188); test: KinaseProfiler panel; design: dose or concentration left out as unconfirmed; details: activity remaining
MST2(h), sequence (Q13188 whole entry): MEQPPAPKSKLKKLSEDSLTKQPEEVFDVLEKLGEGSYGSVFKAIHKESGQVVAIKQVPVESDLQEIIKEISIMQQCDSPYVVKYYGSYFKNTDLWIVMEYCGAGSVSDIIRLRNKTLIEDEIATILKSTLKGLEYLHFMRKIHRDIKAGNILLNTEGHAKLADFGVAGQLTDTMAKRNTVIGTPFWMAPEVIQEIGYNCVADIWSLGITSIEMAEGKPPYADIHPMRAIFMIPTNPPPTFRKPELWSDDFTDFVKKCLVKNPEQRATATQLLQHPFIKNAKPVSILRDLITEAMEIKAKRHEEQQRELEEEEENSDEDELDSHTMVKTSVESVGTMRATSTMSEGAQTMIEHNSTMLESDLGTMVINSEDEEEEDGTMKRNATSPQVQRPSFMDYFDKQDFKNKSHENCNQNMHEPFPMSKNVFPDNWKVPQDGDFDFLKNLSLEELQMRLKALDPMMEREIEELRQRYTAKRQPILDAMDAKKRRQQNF

MST4(h) = MST4(h) (Homo sapiens (Human), UniProt Q9P289); test: KinaseProfiler panel; design: dose or concentration left out as unconfirmed; details: activity remaining
NEK2(h) = NEK2(h) (Homo sapiens (Human), UniProt P51955); test: KinaseProfiler panel; design: dose or concentration left out as unconfirmed; details: activity remaining
NEK2(h), sequence (P51955 whole entry): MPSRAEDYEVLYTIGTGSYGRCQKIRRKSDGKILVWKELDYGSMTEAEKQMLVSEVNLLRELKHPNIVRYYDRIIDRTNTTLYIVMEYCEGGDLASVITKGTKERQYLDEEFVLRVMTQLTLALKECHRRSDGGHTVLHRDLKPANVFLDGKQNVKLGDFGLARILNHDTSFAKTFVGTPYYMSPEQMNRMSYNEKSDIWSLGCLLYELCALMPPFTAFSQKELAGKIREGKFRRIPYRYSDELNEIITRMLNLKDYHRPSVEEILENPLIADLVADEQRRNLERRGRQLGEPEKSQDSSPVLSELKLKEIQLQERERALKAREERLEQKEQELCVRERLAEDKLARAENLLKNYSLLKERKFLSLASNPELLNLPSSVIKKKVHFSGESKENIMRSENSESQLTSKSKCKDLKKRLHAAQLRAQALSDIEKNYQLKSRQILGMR

NEK9(h) = NEK9(h) (Homo sapiens (Human), UniProt Q8TD19); test: KinaseProfiler panel; design: dose or concentration left out as unconfirmed; details: activity remaining
NUAK2(h) = NUAK2(h) (Homo sapiens (Human), UniProt Q9H093); test: KinaseProfiler panel; design: dose or concentration left out as unconfirmed; details: activity remaining
PKCη(h) = PKCη(h) (Homo sapiens (Human), UniProt P24723); test: KinaseProfiler panel; design: dose or concentration left out as unconfirmed; details: activity remaining
Plk1(h) = Plk1(h) (Homo sapiens (Human), UniProt P53350); test: KinaseProfiler panel; design: dose or concentration left out as unconfirmed; details: activity remaining
Plk1(h), sequence (P53350 whole entry): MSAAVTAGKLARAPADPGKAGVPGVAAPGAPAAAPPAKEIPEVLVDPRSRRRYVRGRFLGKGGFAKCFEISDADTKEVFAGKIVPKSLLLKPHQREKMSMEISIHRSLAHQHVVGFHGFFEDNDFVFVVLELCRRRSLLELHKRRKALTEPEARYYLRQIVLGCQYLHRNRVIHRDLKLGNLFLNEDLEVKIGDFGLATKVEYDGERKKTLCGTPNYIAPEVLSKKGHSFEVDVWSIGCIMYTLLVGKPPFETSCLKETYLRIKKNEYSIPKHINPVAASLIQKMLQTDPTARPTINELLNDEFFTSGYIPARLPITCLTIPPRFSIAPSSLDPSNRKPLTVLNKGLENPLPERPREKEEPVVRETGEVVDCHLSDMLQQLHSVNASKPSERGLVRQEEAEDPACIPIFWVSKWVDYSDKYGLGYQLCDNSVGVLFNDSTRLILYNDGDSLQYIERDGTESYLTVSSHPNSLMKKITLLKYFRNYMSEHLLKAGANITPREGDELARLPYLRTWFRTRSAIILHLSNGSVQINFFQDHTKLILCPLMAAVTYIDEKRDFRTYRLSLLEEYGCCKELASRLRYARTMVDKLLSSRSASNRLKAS

TAK1(h) = TAK1(h) (Homo sapiens (Human), UniProt O43318); test: KinaseProfiler panel; design: dose or concentration left out as unconfirmed; details: activity remaining
TrkA(h) = TrkA(h) (Homo sapiens (Human), UniProt P04629); test: KinaseProfiler panel; design: dose or concentration left out as unconfirmed; details: activity remaining
TrkA(h), sequence (P04629 33-796): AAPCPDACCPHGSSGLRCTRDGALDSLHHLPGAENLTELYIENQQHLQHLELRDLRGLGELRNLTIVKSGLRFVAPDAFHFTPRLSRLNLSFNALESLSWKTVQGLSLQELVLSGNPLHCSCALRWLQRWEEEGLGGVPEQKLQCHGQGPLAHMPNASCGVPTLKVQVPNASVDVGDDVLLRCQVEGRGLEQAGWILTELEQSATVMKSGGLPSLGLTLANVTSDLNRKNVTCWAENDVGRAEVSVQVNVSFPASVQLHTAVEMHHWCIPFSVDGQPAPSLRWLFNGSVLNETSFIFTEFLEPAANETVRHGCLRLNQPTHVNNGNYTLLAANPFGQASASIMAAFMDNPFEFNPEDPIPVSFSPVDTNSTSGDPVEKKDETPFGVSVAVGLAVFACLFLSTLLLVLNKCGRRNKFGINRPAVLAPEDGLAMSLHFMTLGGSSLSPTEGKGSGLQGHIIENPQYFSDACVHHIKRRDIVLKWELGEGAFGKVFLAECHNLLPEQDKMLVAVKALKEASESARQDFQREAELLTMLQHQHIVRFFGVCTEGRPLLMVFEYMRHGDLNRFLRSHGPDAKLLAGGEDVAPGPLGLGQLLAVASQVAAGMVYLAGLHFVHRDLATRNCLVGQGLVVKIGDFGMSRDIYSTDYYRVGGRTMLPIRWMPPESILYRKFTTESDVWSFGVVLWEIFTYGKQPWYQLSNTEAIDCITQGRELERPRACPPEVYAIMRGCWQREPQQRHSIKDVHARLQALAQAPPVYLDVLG

TSSK1(h) = TSSK1(h) (Homo sapiens (Human), UniProt Q9BXA7); test: KinaseProfiler panel; design: dose or concentration left out as unconfirmed; details: activity remaining

## Cc1cc2c(-c3ccc(NC(=O)[C@H](N)CC(C)(C)C)cc3C)ccnc2[nH]1 [Compound F-90, (2R)-2-Amino-4,4-dimethyl-N-[3-methyl-4-(2-methyl-1H-pyrrolo[2,3-b]pyridin-4-yl)phenyl]pentanamide]
AAK1
  IC50: 0.212 µM
ACTR2(h)
  % Activity: 96%
ALK(h)
  % Activity: 77%
CDK13/cyclinK(h)
  % Activity: 99%
CDK16/cyclinY(h)
  % Activity: 98%
CDK17/cyclinY(h)
  % Activity: 108%
CDKL2(h)
  % Activity: 80%
CK1γ2(h)
  % Activity: 97%
CK1γ3(h)
  % Activity: 84%
CK1ε(h)
  % Activity: 96%
ErbB2(h)
  % Activity: 97%
FGFR4(h)
  % Activity: 114%
Fms(h)
  % Activity: 115%
IKKε(h)
  % Activity: 87%
Itk(h)
  % Activity: 86%
MKK6(h)
  % Activity: 101%
MST2(h)
  % Activity: 106%
MST4(h)
  % Activity: 106%
NEK2(h)
  % Activity: 118%
NEK9(h)
  % Activity: 79%
NUAK2(h)
  % Activity: 72%
PKCη(h)
  % Activity: 118%
Plk1(h)
  % Activity: 111%
TAK1(h)
  % Activity: 91%
TrkA(h)
  % Activity: 105%
TSSK1(h)
  % Activity: 116%

Reference: patent US20250243196A1, “CITRON KINASE INHIBITORS” (The Cleveland Clinic Foundation, priority 2021, published 2025)
